Measurements taken from patent US9593149B2, “Amylin and calcitonin receptor agonist” (Novo Nordisk A/S, priority 2014, dated 2017).
Converted amounts (≈) assume the structure as drawn. Numbered stars: 1 amine (or outer) side, 2 acyl side, 3 side chain; on linkers, the order of the positions; unused ones are H or OH. Peptide text beside a SMILES is read from it. * marks the point of attachment. C20 diacid = O=C(O)CCCCCCCCCCCCCCCCCCC(=O)*; C18 diacid = O=C(O)CCCCCCCCCCCCCCCCC(=O)*; γGlu = O=C(O)[C@H](CCC(=O)[*:2])N[*:1]

Test: Assay (IV) determination of solubility
Format: physicochemical
Protocol: Assay (IV)—Determination of Solubility
The mimylin peptide was dissolved in water at ˜500 nmol/ml and mixed 1:1 with a series of buffers (100 mM glycylglycine pH 3.0, 100 mM glycylglycine pH 4.0, 100 mM glycylglycine pH 5.0, 100 mM bistrispropane pH 6.0, 100 mM bistrispropane pH 6.5, 100 mM bistrispropane pH 7.0, 100 mM bistrispropane pH 7.5, 100 mM bistrispropane pH 8.0).

| Solubility (pH 3.0) | Solubility (pH 4.0) | solubility at 18 h (pH 5.0) | Solubility (pH 6.0) | Solubility (pH 6.5) | Solubility (pH 7.0) | Solubility (pH 7.5) | Solubility (pH 8.0) | Solubility (pH 5.0) | SMILES |
| --- | --- | --- | --- | --- | --- | --- | --- | --- | --- |
| ≧200 μM | ≧200 μM | 119 µM (≈ 448 µg/mL) | ≧200 μM | ≧200 μM | ≧200 μM | ≧200 μM | ≧200 μM | – | CC(C)C[C@H](NC(=O)CNC(=O)[C@H](CO)NC(=O)[C@H](C)NC(=O)CC[C@H](NC(=O)CCCCCCCCCCCCCCCCCCC(=O)O)C(=O)O)C(=O)N[C@@H](CO)C(=O)N[C@H](C(=O)N[C@@H](C)C(=O)N[C@H](C(=O)N[C@@H](CC(C)C)C(=O)NCC(=O)N[C@@H](CCCNC(=N)N)C(=O)N[C@@H](CC(C)C)C(=O)N[C@@H](CO)C(=O)N[C@@H](C)C(=O)N[C@@H](CCC(=O)O)C(=O)N[C@@H](CC(C)C)C(=O)N[C@@H](Cc1cnc[nH]1)C(=O)N[C@@H](CCC(=O)O)C(=O)N[C@@H](CC(C)C)C(=O)N[C@@H](C)C(=O)N[C@H](C(=O)N[C@@H](Cc1ccc(O)cc1)C(=O)N1CCC[C@H]1C(=O)N[C@@H](CCCNC(=N)N)C(=O)N[C@H](C(=O)N[C@@H](CCC(=O)O)C(=O)N[C@H](C(=O)NCC(=O)N[C@@H](CO)C(=O)NCC(=O)N[C@H](C(=O)N[C@@H](Cc1ccc(O)cc1)C(N)=O)[C@@H](C)O)[C@@H](C)O)[C@@H](C)O)[C@@H](C)O)C(C)C)[C@@H](C)O [compound 104, [N-terminal(C20 diacid-gGlu), des1, 4G, 9V, 23Y, 30S, 31G, 32T, 33Y]mimylin] ({C20 diacid-γGlu}-ASGLSTAVLGRLSAELHELATYPRTETGSGTY-NH2) |
| ≧200 μM | ≧200 μM | – | ≧200 μM | ≧200 μM | ≧200 μM | ≧200 μM | ≧200 μM | ≧200 μM | CC(C)C[C@H](NC(=O)[C@H](CCCNC(=N)N)NC(=O)CNC(=O)[C@H](CC(C)C)NC(=O)[C@@H](NC(=O)[C@H](C)NC(=O)[C@@H](NC(=O)[C@@H](NC(=O)[C@H](CC(C)C)NC(=O)[C@H](CCC(=O)O)NC(=O)[C@H](CO)NC(=O)[C@H](C)NC(=O)CC[C@H](NC(=O)CCCCCCCCCCCCCCCCC(=O)O)C(=O)O)[C@@H](C)O)[C@@H](C)O)C(C)C)C(=O)N[C@@H](CCC(=O)O)C(=O)N[C@@H](C)C(=O)N[C@@H](CCC(=O)O)C(=O)N[C@@H](CC(C)C)C(=O)N[C@@H](Cc1cnc[nH]1)C(=O)N[C@@H](CCC(=O)O)C(=O)N[C@@H](CC(C)C)C(=O)N[C@H](C(=O)N[C@H](C(=O)N[C@@H](CC(C)C)C(=O)N1CCC[C@H]1C(=O)N[C@@H](CCCNC(=N)N)C(=O)N[C@H](C(=O)N[C@@H](CCC(=O)O)C(=O)N[C@H](C(=O)NCC(=O)N[C@H](C(=O)NCC(=O)N[C@H](C(=O)N1CCC[C@H]1C(N)=O)[C@@H](C)O)[C@@H](C)O)[C@@H](C)O)[C@@H](C)O)[C@@H](C)O)[C@@H](C)O [compound 106, [N-terminal(C18 diacid-gGlu), des1, 6T, 9V, 14E, 21T, 30T, 31G, 32T]mimylin] ({C18 diacid-γGlu}-ASELTTAVLGRLEAELHELTTLPRTETGTGTP-NH2) |
